Test results from PubChem BioAssay (NCI).
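Following 48 hours of exposure in 96-well plates, responses at five concentrations were used to interpolate endpoints linearly. TGI: total growth inhibition.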

Experiments:
Assay in all cases: growth of human tumour cells (NCI), 48 h
LOX IMVI melanoma = test system: LOX IMVI melanoma
HL-60(TB) leukemia = test system: HL-60(TB) leukemia
SF-295 CNS = test system: SF-295 CNS
IGROV1 ovarian = test system: IGROV1 ovarian
HCT-15 colon = test system: HCT-15 colon
UACC-257 melanoma = test system: UACC-257 melanoma
SK-MEL-2 melanoma = test system: SK-MEL-2 melanoma
MALME-3M melanoma = test system: MALME-3M melanoma
OVCAR-5 ovarian = test system: OVCAR-5 ovarian
HCT-116 colon = test system: HCT-116 colon
SNB-19 CNS = test system: SNB-19 CNS
OVCAR-4 ovarian = test system: OVCAR-4 ovarian

Row | Structure (SMILES) | TGI (LOX IMVI melanoma) | TGI (HL-60(TB) leukemia) | TGI (SF-295 CNS) | TGI (IGROV1 ovarian) | TGI (HCT-15 colon) | TGI (UACC-257 melanoma) | TGI (SK-MEL-2 melanoma) | TGI (MALME-3M melanoma) | TGI (OVCAR-5 ovarian) | TGI (HCT-116 colon) | TGI (SNB-19 CNS) | TGI (OVCAR-4 ovarian)
1 | Cc1cc(C)nc(NS(=O)(=O)c2ccc(NNC(=O)c3cccc4c(NNc5ccc(S(=O)(=O)Nc6nc(C)cc(C)n6)cc5)c5ccccc5nc34)cc2)n1 | 31.3 µM | 47 µM | 88.1 µM | 57.1 µM | 36.1 µM | 71.3 µM | 57.5 µM | 51.8 µM | 40.3 µM | 48.2 µM | 72.7 µM | 68 µM
2 | c1ccc(SC(Sc2ccccc2)c2ccc3c(c2)OCO3)cc1 | > 100 µM | > 100 µM | > 100 µM | > 100 µM | > 100 µM | > 100 µM | > 100 µM | > 100 µM | > 100 µM | > 100 µM | > 100 µM | > 100 µM
3 | O=Cc1[nH]c(=O)[nH]c(=O)c1CCl | > 81.7 µM | > 72.9 µM | > 100 µM | > 100 µM | > 100 µM | > 100 µM | > 100 µM | > 100 µM | > 100 µM | > 100 µM | > 100 µM | > 100 µM
4 | COc1cc(C=Nc2ccc(S(N)(=O)=O)cc2)cc(OC)c1 | > 50 µM | 36.8 µM | > 50 µM | > 50 µM | > 50 µM | > 50 µM | > 50 µM | > 50 µM | > 50 µM | > 50 µM | > 50 µM | > 50 µM
5 | CCCN1CN(c2ccccc2)C2(CCN(CCCC(=O)c3ccc(F)cc3)CC2)C1=O | 17.1 µM | 40.2 µM | 24.8 µM | 14.8 µM | 16.9 µM | 6.09 µM | 25 µM | 30.1 µM | 20.2 µM | 8.75 µM | 34.7 µM | 20.2 µM
6 | Cc1ccc(S(=O)C[C@@]2(C(F)F)NC(=O)NC2=O)cc1 (some centres undefined) | > 100 µM | > 100 µM | > 100 µM | > 100 µM | > 100 µM | > 100 µM | > 100 µM | > 100 µM | > 100 µM | > 100 µM | > 100 µM | > 100 µM
7 | COc1cc(CNC(=O)[C@H](Cc2ccc(O)cn2)NC(C)=O)cc(OC)c1 | > 100 µM | > 100 µM | > 100 µM | > 100 µM | > 100 µM | > 100 µM | > 100 µM | > 100 µM | > 100 µM | > 100 µM | > 100 µM | > 100 µM
8 | c1ccc2c(c1)CCN1CCc3c([nH]c4ccccc34)C21 (centres undefined) | 53.1 µM | 34.3 µM | 57.4 µM | > 100 µM | > 100 µM | 91.6 µM | 57.1 µM | 38.3 µM | > 100 µM | 76.5 µM | > 100 µM | > 100 µM
9 | CC(=O)Nc1ccc(S(=O)(=O)[N-]C2C(=O)c3ccccc3C(=O)C2[n+]2ccccc2)cc1 (centres undefined) | > 100 µM | 40.5 µM | 28.8 µM | 30 µM | > 100 µM | 29.5 µM | 25.3 µM | 25.1 µM | 32.3 µM | > 100 µM | 27.3 µM | 28.9 µM
10 | O=C1OC2c3ccccc3C(=O)C2(c2ccccc2)N1c1ccccc1 (centres undefined) | > 200 µM | > 200 µM | > 200 µM | > 200 µM | > 200 µM | > 200 µM | > 200 µM | > 200 µM | > 200 µM | > 200 µM | > 200 µM | > 200 µM
11 | O=C(O)CSc1nnc(CCCCCCCCc2nnc(SCC(=O)O)o2)o1 | > 100 µM | > 100 µM | > 100 µM | > 100 µM | > 100 µM | > 100 µM | > 100 µM | > 100 µM | > 100 µM | > 100 µM | > 100 µM | > 100 µM
12 | COc1cc(-c2c3c([nH]c(=O)c2C#N)-c2cc([N+](=O)[O-])ccc2CCC3)cc(OC)c1OC | > 100 µM | 72.7 µM | 33.1 µM | > 100 µM | > 100 µM | > 100 µM | 44.3 µM | 73.9 µM | 69.1 µM | 37.7 µM | > 100 µM | > 100 µM
